Results: publication PMC4267622, “Pin1-mediated Sp1 phosphorylation by CDK1 increases Sp1 stability and decreases its DNA-binding activity during mitosis” (Nucleic Acids Research, 2014)

Experiments:
[1] = system: Sp1-binding probe of p21^WAF1/CIP1 promoter; test: DNA affinity precipitation assay (DAPA); settings: mitotic extract of HeLa cells, 4°C, 1 h, three independent experiments
Method: Cell lysate incubated with 1 μg of binding probes in 500 μl binding of buffer (2 mM MgCl2, 60 mM KCl, 20 mM Tris-HCl pH 7.8, 5% glycerol, 0.5 mM EDTA and 0.02% NP-40). After incubation for 1 h at 4°C, the mixture was incubated with 30 μl of streptavidin-agarose beads (GE Healthcare Life Sciences) for 1 h at 4°C. The mixture was washed three times by binding buffer. The proteins in the beads were eluted by 2X sample buffer and analysed by SDS-PAGE and immunoblotting. The Sp1-binding probe 5′-[…]-3′, localized from −82 to −50 bp within the promoter of p21^WAF1/CIP1, was biotinylated at 5′ termini and then annealed with complementary strands.

HeLa cells [2] = test: Protein level of GFP-Sp1 constructs in HeLa cells (western blot); type: cell-based; settings: equal amount of plasmids
Method: (§1) HeLa cells and mouse embryonic fibroblasts (MEFs) were cultured in DMEM containing 10% of FBS, 100μg/ml streptomycin sulfate and 100 units/ml penicillin G sodium at 37°C, 5% CO2. For transfection of GFP-Sp1, GFP-Sp1-T739A, GFP-Sp1-T739D, GFP-Sp1 (1-740), GFP-Sp1-4A, GFP-Sp1-4D, HA-Sp1, HA-Sp1-4A (S720A, T723A, T737A and T739A), HA-Sp1-4D (S720D, T723D, T737D and T739D), pGL2, pGL2-p21, Sp1 shRNA, or Pin1 shRNA, 2 μg of plasmids was incubated with 2 μl of Lipofectamine in 200 μl of OPTI-MEM for 30 min in room temperature. After incubation, the mixture of plasmids and Lipofectamine in OPTI-MEM was added into 2 ml of OPTI-MEM. The cells were incubated with the mixture of plasmids and Lipofectamine for 6 h. The cells were then incubated in fresh Dulbecco's modified Eagle's medium (DMEM) for 18 or 36 h. The cells were collected for immunoprecipitation or immunoblotting.
Cell lysates or immunoprecipitation samples were fractionated by sodium dodecyl sulfate-polyacrylamide gel electrophoresis (SDS-PAGE) and transferred to polyvinylidene fluoride (PVDF) membrane using a transfer apparatus according to the manufacturer's protocols (Bio-Rad). After incubation with 3% non-fat milk or 2% bovine serum albumin in Tris-buffered Saline with Tween 20 buffer (TBST buffer, 10 mM Tris-HCl pH 8.0, 150 mM NaCl and 0.5% Tween 20) for 1 h, membranes were incubated with antibodies at 4°C overnight. […]

RNF4 = RNF4 co-immunoprecipitation with GFP-Sp1 constructs; type: binding; settings: HeLa, anti-GFP immunoprecipitation, vs full-length Sp1 (1–785)
Method: Cell lysates were prepared by using mRIPA buffer (50 mM Tris-HCl, pH 7.8, 150 mM NaCl, 5 mM ethylenediaminetetraacetic acid (EDTA), 0.1% Triton-X100, 0.05% NP-40). The lysates were incubated with anti-Sp1 (1:500), anti-CDK1 (1:200), anti-Pin1 (1:250), anti-HA tag (1:250), or anti-GFP tag (1:200) antibodies at 4°C for 1 h. After 1 h incubation, the mixture was incubated with Protein A or G Sepharose agarose beads at 4°C for 1 h. The beads were collected and washed three times by mRIPA buffer. The beads were added 2X electrophoresis sample buffer and analysed by immunoblotting.

p21^CIP/WAP = p21^CIP/WAP luciferase activity assay; type: cell-based; settings: HeLa, vs GFP-Sp1 (1–785)
Method: as §1

HeLa cells [3] = test: Sp1 localisation on chromosomes during mitosis; type: cell-based; settings: nocodazole 16 h
Method: The cells were fixed with 4% paraformaldehyde (Sigma-Aldrich) in PBS according to a method described previously ([3]). Immunostaining was conducted with primary antibodies such as anti-Sp1, anti-GFP tag (Santa Cruz Biotechnology, Santa Cruz, CA), or anti-Pin1 (Calbiochem, San Diego, CA) antibodies. The cells were then treated with Alexa Fluor 488-conjugated goat anti-mouse or rabbit immunoglobulin G (IgG) and Alexa Fluor 568-conjugated goat anti-mouse or rabbit IgG polyclonal antibodies (Jackson ImmunoResearch Laboratories Inc., West Grove, PA). Finally, the cells were mounted in 90% glycerol containing 4'-6-diamidino-2-phenylindole (DAPI) (Invitrogen), and examined using a confocal laser-scanning microscope (FluoView^TM FV 1000; Olympus, Melville, NY) or immunofluorescence microscope (Personal DV Applied Precision, Issaquah, WA). The images were analysed with softWoRx software (Applied Precision Inc.).

HeLa cells [4] = test: Flow cytometry with PI staining (cell cycle); type: cell-based; settings: nocodazole 16 h
Method: The cells washed by cold PBS and then fixed in 70% alcohol or 4% paraformaldehyde at 4°C for 2 h. After fixation, the cells washed by cold PBS and treated with 0.1% TritonX-100, 10μg/ml RNase and 50 μg/ml propidium iodide for 1 h. The cells were analysed by flow cytometer (Cell Lab Quanta™ SC; Beckman Coulter or FACSCalibur; BD Biosciences).

Pin1 = test: Isothermal titration calorimetry binding of Sp1 peptides to Pin1; settings: 25°C
Method: (§2) Additionally, two other point mutants of Pin1, K63A and C113A, which are PPIase-activity-deficient, were generated and used in the crystallographic experiments ([42]). For the crystallization and the thermodynamic parameters of Pin1 and Sp1 peptide binding analysis, protein expression and crystallization of Pin1 was performed in slightly modified as described previously ([41]). In brief, the gene for Pin1 was cloned into pET28a with an N-terminal His12-tag and a thrombin cleavage site. R14A, R14A/K63A and R14A/C113A mutants of Pin1 were generated using the PCR-based QuikChange site-directed mutagenesis kit (Agilent). The correct construct was transformed into E. coli BL-21 (DE3) competent cells for protein expression. Transformed BL21 (DE3) bacteria were grown in Luria Bertani (LB) medium containing […] kanamycin at 30°C. Bacteria were induced with 1 mM isopropyl β-D-thiogalactoside (IPTG) overnight at 20°C. Pin1 proteins were purified by Ni^2+-nitrilotriacetic acid affinity chromatography, digested with thrombin and further purified by second run of Ni^2+-nitrilotriacetic acid affinity chromatography. The protein was prepared at 10–20 mg/ml in 10mM HEPES pH 7.5 containing 100 mM NaCl and 1 mM DTT for crystallization. Crystals were grown from a drop composed of 1 ml of protein solution and 1 ml of reservoir solution consisting of 2.0–2.5 M (NH4)2SO4, 1–2% (w/v) PEG 400 and 1–2 mM DTT in 0.1M HEPES buffer pH 7.5 equilibrated at 4°C against 0.5 ml of reservoir solution using the hanging-drop vapor-diffusion method. Crystals of Pin1 in complex with Sp1 peptides were obtained in co-crystallization experiments with the Pin1 protein pre-mixed with 10-fold Sp1 peptide and incubated at 4°C for 4 h before crystallization.
Thermodynamic parameters of Pin1 and Sp1 peptide binding were determined using a Micro-Cal iTC200 (GE Healthcare Life Sciences). All samples were filtered with […] cutoff filters (Millipore). The buffer for Pin1 and Sp1 peptide solutions consisted of 10 mM HEPES pH 7.5, 100 mM NaCl and 1 mM DTT. A […] solution of Sp1 peptide was directly titrated into a solution of […] Pin1 in […] aliquots. The experiments were performed at 25°C. Data were then analysed using the software origin.
To confirm that Pin1 indeed affects the C-terminal conformation of Sp1, Pin1 was purified and oligopeptides of the region 735–745 of Sp1, with or without phosphate at Thr739, were synthesized for ITC and X-ray crystallography experiments (Figure 3). […] Furthermore, two other point mutants of Pin1, K63A and C113A, which are PPIase-activity-deficient, were generated and used in the crystallographic experiments ([42]).
Figure 3. Pin1 recruitment alters the conformation of C-terminal Sp1. (A) The binding analyses of Thr739-Sp1 (left panel) and Thr739(p)-Sp1 (right panel) peptides to Pin1 were determined by ITC. Representative plots from an ITC experiment are shown with raw data in the upper panel and curve fit in the lower panel. The Thr739-Sp1 or Thr739(p)-Sp1 peptides were titrated into the reaction cell containing Pin1 protein. […] The 2Fo–Fc electron density is shown in blue color, contoured at 1σ. […] Overall structure (i) and a close-up view of the active-site pocket of Pin1 (ii). […] Positive charges on the electrostatic surfaces are drawn in blue and negative charges in red.

Pin1 R14A mutant = test: X-ray crystallography of Sp1 peptide with Pin1 R14A; type: binding; settings: co-crystallization, Pin1 pre-mixed with 10-fold peptide, 4°C for 4 h
Method: as §2, with “Crystals were grown from a drop composed of 1 ml of protein solution and 1 ml of reservoir solution consisting of 2.0–2.5 M (NH4)2SO4, 1–2% (w/v) PEG 400 and 1–2 mM DTT in 0.1M HEPES buffer pH 7.5 equilibrated at 4°C against 0.5 ml of reservoir solution using the hanging-drop vapor-diffusion method. Crystals of Pin1 in complex with Sp1 peptides were obtained in co-crystallization experiments with the Pin1 protein pre-mixed with 10-fold Sp1 peptide and incubated at 4°C for 4 h before crystallization.” left out
(§3) All crystals were flash-cooled to 100 K in a stream of cold nitrogen prior to data collection. […] The electron density was calculated by Refmac5 ([43]). […]

Pin1 R14A/C113A mutant = test: X-ray crystallography of Sp1 peptide with Pin1 R14A/C113A; type: binding; settings: ablated isomerase activity; co-crystallization, 10-fold peptide, 4°C for 4 h
Method: as §2, with “Crystals were grown from a drop composed of 1 ml of protein solution and 1 ml of reservoir solution consisting of 2.0–2.5 M (NH4)2SO4, 1–2% (w/v) PEG 400 and 1–2 mM DTT in 0.1M HEPES buffer pH 7.5 equilibrated at 4°C against 0.5 ml of reservoir solution using the hanging-drop vapor-diffusion method. Crystals of Pin1 in complex with Sp1 peptides were obtained in co-crystallization experiments with the Pin1 protein pre-mixed with 10-fold Sp1 peptide and incubated at 4°C for 4 h before crystallization.” left out
as §3

Row | Ka (Pin1; ITC curve fit, 10 mM HEPES pH 7.5, 100 mM NaCl, 1 mM DTT) | N (stoichiometry of bound Thr739(p)-Sp1 peptide per Pin1 protein) (Pin1; ITC curve fit, pH 7.5) | ΔH (Pin1; ITC curve fit, pH 7.5) | ΔS (Pin1; ITC curve fit, pH 7.5) | Substance | DNA-binding activity to the p21^CIP/WAP promoter [1] | protein level (HeLa cells [2]) | interaction with RNF4 (RNF4) | transcriptional activity of p21^CIP/WAP (p21^CIP/WAP) | removal from chromosomes during mitosis (HeLa cells [3]) | cells entered mitosis (HeLa cells [4]) | interaction with Pin1 (Pin1; ITC, 10 mM HEPES pH 7.5, 100 mM NaCl, 1 mM DTT) | configurations of electron density map of bound peptide (Pin1 R14A mutant) | configurations of electron density map of bound peptide (Pin1 R14A/C113A mutant)
1 | – | – | – | – | GFP-Sp1 (1–740): GFP-Sp1 lacking the C-terminal end (741–785) | increased the DNA-binding activity of Sp1 during mitosis | higher than that of GFP-Sp1 (1–785) | decreased interaction between RNF4 and GFP-Sp1 (1–740) | increased the transcriptional activity of p21^CIP/WAP | – | – | – | – | –
2 | – | – | – | – | Sp1-4D: Sp1 mutant S720D, T723D, T737D and T739D | decreased the DNA-binding activity of Sp1 to the p21^CIP/WAP promoter | – | – | – | completely removed from the chromosomes | 75% | – | – | –
3 | 7.4 ± 1.4 × 10^3 M^−1 | 0.93 ± 0.25 | -6.8 ± 2.2 kcal/mol | -5.0 cal/mol/K | Thr739(p)-Sp1 peptide: oligopeptide of the region 735–745 of Sp1, with phosphate at Thr739 | – | – | – | – | – | – | Pin1 could interact with the Thr739(p)-Sp1 peptide | one configuration | two configurations
